Measurements from a melting point compilation (Tetko et al.; mined from patent text by program, amines drawn as free bases though some values may be those of a salt).

SMILES	melting point [°C]
CCCn1c(CCOC)nc2c(N)nc3cc(OC(=O)NC(C)C)ccc3c21	144 to 146
C[C@@](O)(C(=O)Nc1ccc(S(=O)(=O)c2ccccc2F)cc1Cl)C(F)(F)F	90 to 92
Cc1cc(C#N)ccc1C1(CC2c3ccccc3Oc3ccccc32)NC(=O)NC1=O (stereo unspecified)	148 to 152
O=[N+]([O-])c1ccc2c(c1)C(Cc1ccncc1)(Cc1ccncc1)c1ccccc1-2	260 to 264
COc1nc(OC)c(C(C)C)c(C(C#N)c2cc(C)cc(Cl)c2)n1 (stereo unspecified)	105 to 106
CC(C)(C)[C@H](O)[C@@H](C#N)c1ccccc1 (racemic)	70.7 to 71.2
CC(C)(C)OC(=O)N[C@H]1CN(Cc2ccccc2)[C@@H]2CCO[C@H]12 (relative stereo)	115 to 116
CCCCn1c(=O)n(Cc2ccccc2)c(=O)c2[nH]c(Cc3ccc(N4C(=O)CCC4=O)cc3)nc21	208 to 212
CC1(C)[C@@H](Cn2nccn2)CC[C@@]1(C)NCC(=O)N1C[C@@H](F)C[C@H]1C#N	84 to 87
CC(=O)Nc1c[nH]c(=S)n1C1CCc2ccccc2C1 (stereo unspecified)	196 to 200
CC(=O)Nc1nc(-c2ccc(S(=O)(=O)COC(C)=O)cc2)cs1	237 to 238
CCn1c(-c2c(Cl)cccc2Cl)nc(-c2ccnc(OC)c2)c1-c1ccc(Cl)cc1	138 to 140
Cc1cc(C)cc(Oc2ccc([N+](=O)[O-])cc2S(=O)(=O)N2CCN(C(=O)OC(C)(C)C)CC2)c1	232 to 233
CSc1ncc(C(=O)O)c(Nc2ccc3[nH]ncc3c2)n1	> 270
CC(=O)Oc1cccc2c1C(=O)c1c(OC(C)=O)cccc1C2C(=O)C1CCCC1	180
CC(=O)c1cc(Nc2ccn(-c3ccccc3)n2)ccc1O	165 to 167
COc1ccc(-c2[nH]c(-c3ccc(NCCC(C)C)cc3)nc2C(=O)Nc2nccs2)cc1	235 to 239
CCCC(=O)NCCCCn1c(CC)nc2c(N)nc3ccccc3c21	148 to 149
CC(O)CN1CCN(c2cccc3c2OCCO3)CC1 (stereo unspecified)	92
COc1ccc(-c2cc(OCC3CO3)c3ccccc3n2)cc1 (racemic)	100 to 106
CC(C)(C)c1ccc(S(=O)(=O)Nc2nc(-c3ncccn3)nc(OCCOc3ncc(Br)cn3)c2-c2cccs2)cc1	222 to 224
O=Cc1ccccc1-c1noc2ccccc12	149
O=C1OC(=O)C2CC(F)(F)CC12 (stereo unspecified)	50
CCn1cc(OC(=O)c2ccccc2)c(=O)c2ccccc21	190 to 192
CC(C)(C)c1c(OCc2ccccc2)ccc2oc(C=O)cc12	136
Cc1cccc(-c2nc3c(C)cccn3c2-c2ccnc(-c3ccc(CN4CCOCC4)cc3)c2)n1	122

SMILES	melting point [°C]
O=CN1CCc2cc(OCC3CO3)ccc2C1 (stereo unspecified)	78 to 79
COc1cc(OCc2ccccn2)ccc1/C=C/c1cc(/C=C/c2ccc3cc[nH]c3c2)n[nH]1	237 to 239
CCOc1c(C)cc(P(c2cc(C)c(OCC)c(C)c2)c2cc(C)c(OCC)c(C)c2)cc1C	122
CC(C)(C)CNc1nc(Cl)cc(N2CCCC2)n1	147 to 150
Clc1ccc2c(c1)SCc1cccnc1C2=C1CCNCC1	206 to 215
CCCc1c(OCCCCCC(=O)O)ccc(C(C)=O)c1O	62 to 64
CCOC(=O)c1cc2cccc(NS(=O)(=O)c3ccc(Cl)s3)c2[nH]1	180 to 181
CCCn1c(=O)c2[nH]c(/C=C/c3cc(OC)c(OC)c(OC)c3)nc2n(CCC)c1=O	162 to 163
COc1ccc(-c2ccc3[nH]c(=O)ccc3c2)cn1	248 to 252
CN(C)C=Cc1ncc([N+](=O)[O-])n1CCN1CCOCC1	105 to 106
Cn1cc(-c2cc(-c3cccnc3)ccn2)n(-c2ccc(C(C)(C)C#N)cc2)c1=O	180
CC(C)C(NC(=O)NCc1cccnc1)C(=O)NC(Cc1ccccc1)C(O)C(Cc1ccccc1)NC(=O)C(NC(=O)NCc1cccnc1)C(C)C (stereo unspecified)	238 to 239
CN1C(=O)C2C3C=CC(C3)C2(c2ccc([N+](=O)[O-])cc2)C1=O (stereo unspecified)	163 to 167
CC[C@H](C)[C@H](N)C(=O)N(CC(C)C)C(=O)[C@@H]1CCCN1CC(=O)[C@H](Cc1ccccc1)NC(=O)OCc1ccccc1	80 to 81
CCCCCCCCCCCCCCCCC(=O)n1cc(F)c(=O)[nH]c1=O	102
Cc1ccc(S(=O)(=O)OCCCC2CCN(C(=O)OCc3ccccc3)CC2)cc1	59 to 60
O=c1oc(C(F)(F)F)ccc1-c1ccc(Cl)cc1F	107 to 108
CCC12OC[C@@H](O1)[C@@H](O)C[C@H]2OC	43 to 44
CCc1cc2cc([N+](=O)[O-])ccc2o1	86
c1cnc(Sc2cccc3cccnc23)nc1	165 to 168
Cc1cc([N+](=O)[O-])c(NCCO)c([N+](=O)[O-])c1	131
COc1ccc2c3ccc(OC)cc3n(-c3ccccc3OC)c2c1	148
O=S(=O)(Nc1ccc(I)cc1)N1CCOCC1	91
Cc1nc2cccc(OCC(C)(C)NC(=O)C(C)C)c2c(N)c1C(=O)O	184 to 186
CC1CC(=O)c2cccc(C(N)=S)c21 (stereo unspecified)	198 to 200
